# According to patent US11786517B2, “Methods of treatment using a JAK inhibitor compound” (THERAVANCE BIOPHARMA R&D IP, LLC, priority 2017, dated 2023):
# Tests used:
# [1] = tested on: IFNγ induced CXCL10 secretion; assay: Inhibition of IFNγ induced CXCL10 in human 3D airway cultures; assay type: cell-based; conditions: at μM (so in the source), 8 days, ±STDV
# Description: (§1) EpiAirway tissue cultures were obtained from Mattek (AIR-100). Cultures were derived from asthmatic donors. In a cell culture insert, human derived tracheal/bronchial epithelial cells were grown and differentiated on a porous membrane support, allowing an air-liquid interface with warmed culture medium below the cells and a gaseous test atmosphere above. Tissues were cultured in maintenance media (Mattek, AIR-100-MM) in a 37° C., 5% CO2 humidified incubator. Four donors were tested. On Day 0, tissue cultures were treated with test compounds at 10 μM, 1 μM and/or 0.1 μM. Compounds were diluted in dimethyl sulfoxide (DMSO, Sigma) to a final concentration of 0.1%. DMSO at 0.1% was used as a vehicle control. Test compounds were incubated with cultures for 1 hour at 37° C., 5% CO2, followed by the addition of pre-warmed media containing IFNγ (R&D Systems) or IL-27 (R&D Systems) at a final concentration at 100 ng/ml. Tissue cultures were maintained for 8 days. Media was replaced every 2 days with fresh media containing compounds and IFNγ or IL-27. On Day 8, tissue cultures and supernatants were collected for analysis. […] Data is expressed as % Inhibition+/−standard deviation (±STDV). Percent inhibition was determined by compound inhibitory potency against IFNγ or IL-27 induced CXCL10 or CXCL9 secretion compared to vehicle treated cells. […]
# [2] = tested on: IL-27 induced CXCL10 secretion; assay: Inhibition of IL-27 induced CXCL10 in human 3D airway cultures; assay type: cell-based; conditions: 192 h, at 0.1 μM (first of two values so printed), 8 days, ±STDV
# Description: as §1
# [3] = Pharmacokinetics in plasma and lung in mouse; assay type: in vivo, BALB/c mice; conditions: oral aspiration, 0.2 mg/mL, 50 uL
# Description: Plasma and lung levels of the test compound and the ratio thereof was determined in the following manner. BALB/c mice from Charles River Laboratories were used in the assay. Test compounds were individually formulated in 20% propylene glycol in pH 4 citrate buffer at a concentration of 0.2 mg/mL and 50 uL of the dosing solution was introduced into the trachea of a mouse by oral aspiration. At various time points (typically 0.167, 2, 6, 24 hr) post dosing, blood samples were removed via cardiac puncture and intact lungs were excised from the mice. Blood samples were centrifuged (Eppendorf centrifuge, 5804R) for 4 minutes at approximately 12,000 rpm at 4° C. to collect plasma. Lungs were padded dry, weighed, and homogenized at a dilution of 1:3 in sterile water. Plasma and lung levels of test compound were determined by LC-MS analysis against analytical standards constructed into a standard curve in the test matrix. A lung to plasma ratio was determined as the ratio of the lung AUC in μg hr/g to the plasma AUC in μg hr/mL, where AUC is conventionally defined as the area under the curve of test compound concentration vs. time.
# [4] = Ocular pharmacokinetics in rabbit eyes; assay type: in vivo, New Zealand white rabbits; conditions: intravitreal injection, listed as compound of the invention
# Description: The objective of this assay was to determine the pharmacokinetics of the test compound in rabbit ocular tissues.
# The compound of the invention, 5-ethyl-2-fluoro-4-(3-(5-(1-methylpiperidin-4-yl)-4,5,6,7-tetrahydro-1H-imidazo[4,5-c]pyridin-2-yl)-1H-indazol-6-yl)phenol (1) was dissolved in either 10% 2-hydroxypropyl-β-cyclodextrin to attain a target concentration of 4 mg/mL or in purified water to attain a target concentration of 1 mg/mL. Bilateral intravitreal injection (50 μL/eye) of the solution of test compound was administered to New Zealand white rabbits in two dose groups, 200 μg/eye and 50 μg/eye, respectively, for the cyclodextrin and water vehicle formulations, respectively. The test compound concentration was measured in ocular tissues: vitreous, aqueous, retina/choroid and iris-ciliary body at pre-determined time points post injection (30 min, 4 h, 1 d, 3 d, 7 d, 14 d). Two rabbits (four eyes) were dosed for each time point.
# A suspension formulation was prepared by combining crystalline compound 1 of Example 1 with 0.5% hydroxypropyl methylcellulose (HPMC E5)+0.02% Tween 80 to attain a target concentration of 10 mg/mL. Bilateral intravitreal injection (50 μL/eye) of the suspension of test compound was administered to New Zealand white rabbits (500 μg/eye). The test compound concentration was measured in ocular tissues as in the […] at 30 min, 2 wks, 4 wks, 6 wks, and 8 wks post injection. […] The behavior is consistent with the solubility of compound 1 in the vehicle and the ocular pharmacokinetic behavior in the solution formulation. The drug concentration in plasma was measured and found to be at least 3 orders of magnitude lower than the concentration in vitreous tissue.
# BALF eosinophils = assay: Murine model of Alternaria alternata-induced eosinophilic inflammation of the lung; assay type: in vivo, C57 mice; conditions: mouse, oropharyngeal aspiration 0.1-1.0 mg/mL, forty-eight hours after alternaria challenge
# Description: Airway eosinophilia is a hallmark of human asthma. Alternaria alternata is a fungal aeroallergen that can exacerbate asthma in humans and induces eosinophilic inflammation in the lungs of mice (Havaux et al. Clin Exp Immunol. 2005, 139(2):179-88).
# Seven- to nine-week old male C57 mice from Taconic were used in the study. On the day of study, animals were lightly anesthetized with isoflurane and administered either vehicle or test compound (0.1-1.0 mg/mL, 50 μL total volume over several breaths) via oropharyngeal aspiration. Animals were placed in lateral recumbency post dose and monitored for full recovery from anesthesia before being returned to their home cage. One hour later, animals were once again briefly anesthetized and challenged with either vehicle or alternaria extract (200 ug total extract delivered, 50 μL total volume) via oropharyngeal aspiration before being monitored for recovery from anesthesia and returned to their home cage. Forty-eight hours after alternaria administration, bronchoalveolar lavage fluid (BALF) was collected and eosinophils were counted in the BALF using the Advia 120 Hematology System (Siemens).
# Activity in the model is evidenced by a decrease in the level of eosinophils present in the BALF of treated animals at forty-eight hours compared to the vehicle treated, alternaria challenged control animals. […]
smiles,measurement,setting,value
"CCc1cc(O)c(F)cc1-c1ccc2c(-c3nc4c([nH]3)CCN(C3CCN(C)CC3)C4)n[nH]c2c1 [compound 1, 5-ethyl-2-fluoro-4-(3-(5-(1-methylpiperidin-4-yl)-4,5,6,7-tetrahydro-1H-imidazo[4,5-c]pyridin-2-yl)-1H-indazol-6-yl)phenol]",inhibition of IFNγ induced CXCL10 secretion,[1],71%±19
same,inhibition at 0.1 µM,[2],98%
same,exposure in lung relative to exposure in plasma (lung AUC to plasma AUC ratio),[3],about 55 times
same,drug concentration in plasma lower than concentration in vitreous tissue,[4],at least three orders of magnitude lower
same,inhibition of BALF eosinophil counts,BALF eosinophils,about 88%
